According to patent publication US20260176266A1, “PIPERIDINOPYRIMIDINE DERIVATIVE, PREPARATION METHOD THEREFOR AND USE THEREOF IN MEDICINE” (TUOJIE BIOTECH (SHANGHAI) CO., LTD., priority 2022, published 2026):

Legend:
CDK6/CyclinD3 = CDK6/CyclinD3 (Homo sapiens, UniProt Q00534); experiment: ADP-Glo kinase assay, CDK6; assay type: biochemical; conditions: 15.7 nM CDK6/CyclinD3, 200 μM ATP (Km), Histone H1, 60 min; read-out: inhibitory activity (IC50, nM) CDK 6
Protocol: (§1) The ADP-Glo kinase assay was used for testing the activity of CDKs. The compounds were diluted in 384-well plates using Echo. The starting concentration was 10 μM and was 3-fold diluted to obtain 10 concentration points, each tested in duplicate, and the final concentration of DMSO in the assay system was 1%. CDK solutions (the final concentrations were 16.5 nM CDK1/CyclinB, 1 nM CDK2/CyclinE1, 16.3 nM CDK4/CyclinD1, 11.5 nM CDK5/p25, 15.7 nM CDK6/CyclinD3, 80 nM CDK7/Cyclin H/MAT1, 15.3 nM CDK9/Cyclin T1, and 150 nM CDK12/CyclinK) prepared in assay buffer were added at 2.5 μL, and the enzymes and compounds were pre-incubated at room temperature for 10 min. ATP (the concentration was Km) & substrate solutions (20 μM ATP & 0.1 mg/mL Histone H1 Protein for CDK1/CyclinB, 15 μM ATP & 0.1 mg/mL Histone H1 Protein for CDK2/CyclinE1, 200 μM ATP & 0.2 mg/mL DYRKtide peptide for CDK4/CyclinD1, 10 μM ATP & 0.1 mg/mL Histone H1 Protein for CDK5/p25, 200 μM ATP & 0.1 mg/mL Histone H1 Protein for CDK6/CyclinD3, 70 μM ATP & 0.2 mg/mL MBP for CDK7/Cyclin H/MAT1, 60 μM ATP & 0.2 mg/mL PDKtide for CDK9/Cyclin T1, and 20 μM ATP & 80 μM pS7-CTD peptide for CDK12/CyclinK) prepared in assay buffer were added at 2.5 μL. […] Readings were taken using an Envision multimode microplate reader. Data were processed using GraphPad Prism 8, and IC50 was calculated. […]

[1] = Human liver microsome metabolism study; assay type: in vitro ADME
Protocol: 222.5 μL of human liver microsomes (protein concentration: 1 mg/mL) and 25 μL of NADPH ([…]) were added to an incubation plate and pre-heated for 10 min. 2.5 μL of control compound and test compound (100 μM) were added.
[…] The reaction was stopped by adding 5 volumes of cold acetonitrile containing IS (100 nM alprazolam, 200 nM caffeine, and 100 nM tolbutamide). The reaction mixture was centrifuged, and 100 μL of the supernatant was collected and mixed with 100 μL of ultrapure H2O. Then the mixture was analyzed by LC-MS/MS.
The slope value k was determined by linear regression of the natural logarithm of a curve of the parent drug remaining percentage versus incubation time.
The in-vitro half-life (in-vitro T1/2) was determined by the slope value:
Using the following equation (the average of repeated measurements), the in-vitro T½ (min) was converted to the in-vitro intrinsic clearance rate (in-vitro CLint, in μL/min/mg protein): […]

CDK1/CyclinB = CDK1/CyclinB (Homo sapiens, UniProt P06493); experiment: ADP-Glo kinase assay, CDK1; assay type: biochemical; conditions: 16.5 nM CDK1/CyclinB, 20 μM ATP (Km), Histone H1, 120 min; read-out: inhibitory activity (IC50, nM) CDK1
CDK1/CyclinB, sequence (P06493 whole entry, species assumed): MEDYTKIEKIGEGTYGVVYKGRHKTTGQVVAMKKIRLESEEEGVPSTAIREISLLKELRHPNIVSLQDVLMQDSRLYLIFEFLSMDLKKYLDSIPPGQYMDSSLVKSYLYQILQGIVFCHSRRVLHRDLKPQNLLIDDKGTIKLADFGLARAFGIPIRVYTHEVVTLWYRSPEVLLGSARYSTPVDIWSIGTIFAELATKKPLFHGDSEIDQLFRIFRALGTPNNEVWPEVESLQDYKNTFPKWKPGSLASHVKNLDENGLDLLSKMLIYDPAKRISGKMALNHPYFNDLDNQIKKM
CDK1/CyclinB, sequence (P14635 whole entry partner, species assumed): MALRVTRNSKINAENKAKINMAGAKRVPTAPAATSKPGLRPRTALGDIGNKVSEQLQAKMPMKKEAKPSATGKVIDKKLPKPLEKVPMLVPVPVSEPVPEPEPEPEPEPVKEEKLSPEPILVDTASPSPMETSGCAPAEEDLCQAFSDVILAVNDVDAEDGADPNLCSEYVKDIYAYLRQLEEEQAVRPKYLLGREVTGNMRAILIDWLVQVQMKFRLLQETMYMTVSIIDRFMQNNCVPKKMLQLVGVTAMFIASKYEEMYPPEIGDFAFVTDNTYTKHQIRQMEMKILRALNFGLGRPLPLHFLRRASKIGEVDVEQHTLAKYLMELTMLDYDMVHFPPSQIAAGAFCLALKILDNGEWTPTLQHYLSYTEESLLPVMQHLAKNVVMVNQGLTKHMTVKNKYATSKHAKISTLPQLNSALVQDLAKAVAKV
Protocol: as §1

CDK6/CyclinD3, sequence (Q00534 whole entry, species assumed): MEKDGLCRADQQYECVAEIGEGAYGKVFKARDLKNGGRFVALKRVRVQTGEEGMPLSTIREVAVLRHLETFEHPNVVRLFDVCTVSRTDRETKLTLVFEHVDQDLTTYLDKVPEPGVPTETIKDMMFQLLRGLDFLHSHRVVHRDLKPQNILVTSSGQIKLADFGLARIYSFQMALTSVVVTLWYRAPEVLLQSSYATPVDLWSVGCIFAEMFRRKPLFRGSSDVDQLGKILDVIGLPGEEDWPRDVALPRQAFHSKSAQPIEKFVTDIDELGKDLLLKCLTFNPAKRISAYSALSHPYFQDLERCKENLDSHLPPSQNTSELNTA
CDK6/CyclinD3, sequence (P30281 whole entry partner, species assumed): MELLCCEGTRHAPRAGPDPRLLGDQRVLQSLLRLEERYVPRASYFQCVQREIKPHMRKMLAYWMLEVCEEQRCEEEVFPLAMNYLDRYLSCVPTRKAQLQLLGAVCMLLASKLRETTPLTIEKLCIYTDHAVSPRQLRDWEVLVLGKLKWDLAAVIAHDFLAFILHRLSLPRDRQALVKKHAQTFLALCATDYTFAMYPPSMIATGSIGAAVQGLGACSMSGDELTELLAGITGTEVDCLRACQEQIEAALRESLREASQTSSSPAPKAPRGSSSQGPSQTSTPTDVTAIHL

Row | IC50 (CDK6/CyclinD3) [nM] | half-life at 1 μM ([1]; human liver microsomes, in-vitro half-life) [min] | microsomal CLint at 1 μM ([1]; human liver microsomes, in-vitro intrinsic clearance) [µL/min/mg] | Remaining amount % at 0.5 min ([1]; human liver microsomes, incubation 0.5 min) [%] | Remaining amount % at 5 min ([1]; human liver microsomes, incubation 5 min) [%] | Remaining amount % at 15 min ([1]; human liver microsomes, incubation 15 min) [%] | Remaining amount % at 30 min ([1]; human liver microsomes, incubation 30 min) [%] | Remaining amount % at 60 min ([1]; human liver microsomes, incubation 60 min) [%] | metabolic stability in human liver microsomes compared with Janssen-01 ([1]; summary of Tables 7 and 8, statement in words) | IC50 (CDK1/CyclinB) [nM] | Compound
1 | > 10000 | > 185 | < 7.5 | 100.00 | 105.55 | 96.07 | 100.48 | 81.83 | more stable metabolism | > 10000 | C[C@@H]1Cc2cnc(NCc3ccn(C)n3)nc2CN1C(=O)N[C@H](CN(C)C)c1ccccc1 [Example 2, (R)—N—((S)-2-(Dimethylamino)-1-phenylethyl)-6-methyl-2-(((1-methyl-TH-pyrazol-3-yl)methyl)amino)-5,8-dihydropyrido[3,4-d]pyrimidine-7(6H)-carboxamide]
2 | > 10000 | – | – | – | – | – | – | – | – | > 10000 | C[C@H](Nc1ncc2c(n1)CN(C(=O)N[C@H](CN(C)C)c1ccccc1)[C@H](C)C2)c1ccccn1 [Example 6, (R)—N—((S)-2-(Dimethylamino)-1-phenylethyl)-6-methyl-2-(((S)-1-(pyridin-2-yl)ethyl)amino)-5,8-dihydropyrido[3,4-d]pyrimidine-7(6H)-carboxamide]
